# According to ChEMBL document CHEMBL4725227, “Dual-Target Inhibitors Based on HDACs: Novel Antitumor Agents for Cancer Therapy” (J Med Chem, 2020):
# Assays:
# Histone deacetylase = experiment: Inhibition of HDAC (unknown origin); assay type: protein assay, Homo sapiens
# THP-1 = experiment: Growth inhibition of human THP-1 cells; assay type: functional
# Histone deacetylase 1 [1] = biological target: T1, Histone deacetylase 1 (Homo sapiens, UniProt Q13547); experiment: Inhibition of HDAC1 (unknown origin)
# [2] = biological target: T2, Bromodomain-containing protein 4 (Homo sapiens, UniProt O60885); experiment: Inhibition of BRD4 (unknown origin)
# MCF7 = experiment: Cytotoxicity against human MCF7 cells assessed as reduction in cell viability in presence of SAHA by MTT assay; assay type: functional, cell-based
# A549 = experiment: Cytotoxicity against human A549 cells assessed as reduction in cell viability by MTT assay
# A-431 = experiment: Cytotoxicity against human A-431 cells assessed as reduction in cell viability by MTT assay; assay type: functional, cell-based
# [3] = biological target: T3, Epidermal growth factor receptor (Homo sapiens, UniProt P00533); experiment: Inhibition of EGFR (unknown origin)
# MDA-MB-231 = experiment: Cytotoxicity against human MDA-MB-231 cells assessed as reduction in cell viability by MTT assay; assay type: functional, cell-based
# MDA-MB-468 = experiment: Cytotoxicity against human MDA-MB-468 cells assessed as reduction in cell viability by MTT assay; assay type: functional, cell-based
# HeLa = experiment: Cytotoxicity against human HeLa cells assessed as reduction in cell viability by MTT assay; assay type: functional, cell-based
# HT-29 = experiment: Cytotoxicity against human HT-29 cells assessed as reduction in cell viability by MTT assay; assay type: functional, cell-based
# KG-1 = experiment: Cytotoxicity against human KG-1 cells assessed as reduction in cell viability by MTT assay; assay type: functional, cell-based
# Histone deacetylase 1 [4] = biological target: T1, Histone deacetylase 1; experiment: Inhibition of recombinant human HDAC1 expressed in baculovirus expression system using Ac-Lys-Tyr-Lys (epsilon-acetyl)-AMC as substrate after 24 hrs by fluorescence assay
# Histone deacetylase 3 = Histone deacetylase 3 (Homo sapiens, UniProt O15379); experiment: Inhibition of recombinant human HDAC3 expressed in baculovirus expression system using Ac-Lys-Tyr-Lys (epsilon-acetyl)-AMC as substrate after 24 hrs by fluorescence assay
# [5] = biological target: Protein deacetylase HDAC6 (Homo sapiens, UniProt Q9UBN7); experiment: Inhibition of recombinant human HDAC6 expressed in baculovirus expression system using Ac-Lys-Tyr-Lys (epsilon-acetyl)-AMC as substrate after 24 hrs by fluorescence assay
# [6] = biological target: Receptor tyrosine-protein kinase erbB-2 (Homo sapiens) (UniProt P04626); experiment: Inhibition of HER2 (unknown origin) at 10 ug/ml using biotinylated peptide as substrate in presence of ATP relative to control; details: dose 10.0 µg/ml
# [7] = biological target: T3, Epidermal growth factor receptor; experiment: Inhibition of GST-tagged EGFR (unknown origin) at 10 ug/ml using biotinylated peptide as substrate in presence of ATP relative to control; details: dose 10.0 µg/ml
# OCI-AML2 = experiment: Antiproliferative activity against human OCI-AML2 cells by MTT assay; assay type: functional, cell-based
# OCI-AML-3 = experiment: Antiproliferative activity against human OCI-AML-3 cells by MTT assay; assay type: functional, cell-based
# MV4-11 = experiment: Antiproliferative activity against human MV4-11 cells by MTT assay; assay type: functional, cell-based
# [8] = biological target: T2, Bromodomain-containing protein 4; experiment: Inhibition of BRD4 BD2 domain (unknown origin)
# T1 sequence (Q13547 whole entry): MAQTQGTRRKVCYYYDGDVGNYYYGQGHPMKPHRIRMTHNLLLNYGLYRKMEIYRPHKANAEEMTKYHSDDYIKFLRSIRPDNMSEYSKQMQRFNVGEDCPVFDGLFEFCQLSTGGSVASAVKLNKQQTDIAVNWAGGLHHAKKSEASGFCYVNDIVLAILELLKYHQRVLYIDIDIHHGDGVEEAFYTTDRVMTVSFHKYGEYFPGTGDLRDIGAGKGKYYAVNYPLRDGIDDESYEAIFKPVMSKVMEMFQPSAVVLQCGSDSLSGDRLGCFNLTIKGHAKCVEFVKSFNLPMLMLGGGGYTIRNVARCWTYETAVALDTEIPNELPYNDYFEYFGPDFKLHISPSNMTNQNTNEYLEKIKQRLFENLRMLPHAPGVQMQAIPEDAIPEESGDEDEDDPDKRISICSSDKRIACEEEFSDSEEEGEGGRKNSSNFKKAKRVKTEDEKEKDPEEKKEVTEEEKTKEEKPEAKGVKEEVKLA
# T3 sequence (P00533 whole entry): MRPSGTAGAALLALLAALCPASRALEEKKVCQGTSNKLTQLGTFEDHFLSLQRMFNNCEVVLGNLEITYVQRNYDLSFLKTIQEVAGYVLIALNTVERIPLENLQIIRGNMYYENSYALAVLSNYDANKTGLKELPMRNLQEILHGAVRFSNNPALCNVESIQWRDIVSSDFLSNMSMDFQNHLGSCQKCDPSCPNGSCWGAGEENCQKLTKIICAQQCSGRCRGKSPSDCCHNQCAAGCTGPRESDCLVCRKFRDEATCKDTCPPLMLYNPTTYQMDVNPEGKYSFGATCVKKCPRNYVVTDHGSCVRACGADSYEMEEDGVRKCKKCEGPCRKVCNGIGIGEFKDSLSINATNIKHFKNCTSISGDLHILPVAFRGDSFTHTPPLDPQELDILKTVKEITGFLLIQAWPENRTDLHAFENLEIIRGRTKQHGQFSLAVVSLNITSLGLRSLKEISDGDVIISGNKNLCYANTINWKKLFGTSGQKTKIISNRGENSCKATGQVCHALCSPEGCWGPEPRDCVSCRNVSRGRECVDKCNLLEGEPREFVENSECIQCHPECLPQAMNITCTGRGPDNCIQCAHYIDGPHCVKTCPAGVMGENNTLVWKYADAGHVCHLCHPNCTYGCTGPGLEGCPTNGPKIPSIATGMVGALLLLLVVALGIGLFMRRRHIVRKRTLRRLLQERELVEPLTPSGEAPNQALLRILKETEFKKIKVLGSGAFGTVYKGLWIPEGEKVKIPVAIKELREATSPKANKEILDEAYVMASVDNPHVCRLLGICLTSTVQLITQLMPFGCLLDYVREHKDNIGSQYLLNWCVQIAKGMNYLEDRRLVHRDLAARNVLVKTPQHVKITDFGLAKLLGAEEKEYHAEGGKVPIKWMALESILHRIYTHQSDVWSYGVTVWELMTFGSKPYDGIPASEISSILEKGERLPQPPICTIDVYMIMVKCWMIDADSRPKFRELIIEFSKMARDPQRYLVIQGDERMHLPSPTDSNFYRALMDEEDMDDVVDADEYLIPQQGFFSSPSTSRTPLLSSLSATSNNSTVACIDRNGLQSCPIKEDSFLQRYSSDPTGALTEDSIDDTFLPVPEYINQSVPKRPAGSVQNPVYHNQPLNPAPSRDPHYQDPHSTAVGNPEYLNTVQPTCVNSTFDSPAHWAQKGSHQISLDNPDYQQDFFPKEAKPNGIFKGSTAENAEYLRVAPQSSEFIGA
# Sequence of Receptor tyrosine-protein kinase erbB-2 (Homo sapiens) (P04626 whole entry): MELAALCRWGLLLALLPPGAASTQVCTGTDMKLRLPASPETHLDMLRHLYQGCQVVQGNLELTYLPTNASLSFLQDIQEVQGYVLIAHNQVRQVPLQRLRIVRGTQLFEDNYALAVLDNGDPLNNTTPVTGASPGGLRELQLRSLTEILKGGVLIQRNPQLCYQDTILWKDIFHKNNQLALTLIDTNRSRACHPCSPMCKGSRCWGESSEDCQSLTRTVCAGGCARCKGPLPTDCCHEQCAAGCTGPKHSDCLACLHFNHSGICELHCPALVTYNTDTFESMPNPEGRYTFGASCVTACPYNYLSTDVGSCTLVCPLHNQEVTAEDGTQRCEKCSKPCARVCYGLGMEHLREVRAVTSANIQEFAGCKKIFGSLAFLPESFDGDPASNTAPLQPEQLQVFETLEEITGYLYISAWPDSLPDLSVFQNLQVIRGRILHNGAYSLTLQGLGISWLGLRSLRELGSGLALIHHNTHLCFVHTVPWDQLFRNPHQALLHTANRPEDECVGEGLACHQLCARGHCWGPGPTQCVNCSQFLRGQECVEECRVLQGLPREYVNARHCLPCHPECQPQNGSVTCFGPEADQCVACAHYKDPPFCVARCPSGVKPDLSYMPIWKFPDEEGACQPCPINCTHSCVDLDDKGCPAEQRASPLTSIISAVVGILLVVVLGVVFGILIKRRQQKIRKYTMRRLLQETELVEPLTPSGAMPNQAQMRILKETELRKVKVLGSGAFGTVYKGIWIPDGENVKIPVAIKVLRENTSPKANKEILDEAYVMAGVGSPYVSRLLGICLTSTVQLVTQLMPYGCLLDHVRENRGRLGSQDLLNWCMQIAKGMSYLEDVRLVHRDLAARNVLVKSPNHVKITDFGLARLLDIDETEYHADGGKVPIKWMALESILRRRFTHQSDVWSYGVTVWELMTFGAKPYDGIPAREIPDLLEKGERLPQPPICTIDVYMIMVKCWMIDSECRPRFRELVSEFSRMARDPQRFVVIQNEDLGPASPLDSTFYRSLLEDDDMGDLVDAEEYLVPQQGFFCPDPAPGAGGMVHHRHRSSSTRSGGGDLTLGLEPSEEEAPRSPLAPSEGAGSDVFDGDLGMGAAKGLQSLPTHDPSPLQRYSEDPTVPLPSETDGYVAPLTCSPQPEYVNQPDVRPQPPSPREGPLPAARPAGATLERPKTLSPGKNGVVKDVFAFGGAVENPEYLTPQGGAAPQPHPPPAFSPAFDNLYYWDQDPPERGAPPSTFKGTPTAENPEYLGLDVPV
# Sequence of Protein deacetylase HDAC6 (Q9UBN7 whole entry): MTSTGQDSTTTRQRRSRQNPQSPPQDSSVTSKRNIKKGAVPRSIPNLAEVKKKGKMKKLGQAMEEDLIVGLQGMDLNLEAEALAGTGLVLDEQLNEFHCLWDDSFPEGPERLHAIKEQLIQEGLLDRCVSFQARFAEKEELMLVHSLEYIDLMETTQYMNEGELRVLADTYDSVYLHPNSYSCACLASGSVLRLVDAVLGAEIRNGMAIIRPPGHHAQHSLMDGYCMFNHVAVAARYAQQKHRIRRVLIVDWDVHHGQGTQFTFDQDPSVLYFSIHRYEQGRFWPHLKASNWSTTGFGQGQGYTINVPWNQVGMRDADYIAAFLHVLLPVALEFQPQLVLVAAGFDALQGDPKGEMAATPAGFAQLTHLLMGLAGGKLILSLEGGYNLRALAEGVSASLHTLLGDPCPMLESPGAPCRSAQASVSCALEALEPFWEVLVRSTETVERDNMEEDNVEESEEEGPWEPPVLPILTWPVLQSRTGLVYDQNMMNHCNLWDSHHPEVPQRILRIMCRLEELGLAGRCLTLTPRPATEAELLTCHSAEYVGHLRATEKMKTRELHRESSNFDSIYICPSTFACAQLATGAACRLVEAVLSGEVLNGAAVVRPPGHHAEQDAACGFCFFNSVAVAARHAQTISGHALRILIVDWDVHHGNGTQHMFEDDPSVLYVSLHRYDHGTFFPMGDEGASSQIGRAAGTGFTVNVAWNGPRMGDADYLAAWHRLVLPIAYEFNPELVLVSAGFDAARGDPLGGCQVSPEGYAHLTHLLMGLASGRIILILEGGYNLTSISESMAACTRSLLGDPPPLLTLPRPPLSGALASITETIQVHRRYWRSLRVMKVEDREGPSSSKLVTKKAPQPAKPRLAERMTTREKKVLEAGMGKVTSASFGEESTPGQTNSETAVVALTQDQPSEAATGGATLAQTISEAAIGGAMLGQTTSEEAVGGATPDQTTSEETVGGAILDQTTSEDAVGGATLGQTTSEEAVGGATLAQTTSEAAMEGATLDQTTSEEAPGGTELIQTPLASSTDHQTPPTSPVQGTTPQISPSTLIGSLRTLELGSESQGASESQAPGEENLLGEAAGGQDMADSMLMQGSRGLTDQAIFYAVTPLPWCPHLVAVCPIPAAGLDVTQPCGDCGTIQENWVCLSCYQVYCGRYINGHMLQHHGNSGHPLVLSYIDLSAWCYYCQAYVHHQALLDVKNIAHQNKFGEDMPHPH
# Sequence of Histone deacetylase 3 (O15379 whole entry): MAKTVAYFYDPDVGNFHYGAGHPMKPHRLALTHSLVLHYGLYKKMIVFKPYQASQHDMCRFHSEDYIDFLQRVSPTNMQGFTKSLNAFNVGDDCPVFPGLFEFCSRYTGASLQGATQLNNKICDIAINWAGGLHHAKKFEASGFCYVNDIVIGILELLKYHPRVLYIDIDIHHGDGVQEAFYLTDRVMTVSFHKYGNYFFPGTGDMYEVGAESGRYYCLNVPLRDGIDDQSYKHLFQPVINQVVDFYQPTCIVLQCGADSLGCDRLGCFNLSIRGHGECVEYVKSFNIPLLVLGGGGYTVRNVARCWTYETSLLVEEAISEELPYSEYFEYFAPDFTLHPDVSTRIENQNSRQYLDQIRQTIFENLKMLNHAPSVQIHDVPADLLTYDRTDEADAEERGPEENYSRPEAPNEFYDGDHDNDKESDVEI
SMILES,IC50 (Histone deacetylase),GI50 (THP-1),other results
O=C(CCCCCC(=O)Nc1ccc(O)c(C(=O)Nc2ccc(Cl)c(C(F)(F)F)c2)c1)NO,< 1000 nM,–,–
C=CC(=O)Nc1cc(Nc2nccc(-c3cn(C)c4ccccc34)n2)c(OC)cc1N(C)CCN(C)C [OSIMERTINIB],< 1000 nM,–,–
O=C(CCCCCC(=O)Nc1ccc(O)c(C(=O)Nc2ccc(F)c(Cl)c2)c1)NO,< 1000 nM,–,–
O=C(CCCCCC(=O)Nc1ccc(O)c(C(=O)Nc2ccc(Cl)c(Cl)c2)c1)NO,< 1000 nM,–,–
Cc1noc(C)c1-c1cc(NC(=O)CCCCCC(=O)NO)cc(C(=O)c2ccccc2)c1,–,–,IC50 (Histone deacetylase 1 [1]): 150 nM; IC50 [2]: 670 nM
C#Cc1cccc(Nc2ncnc3cc(OCCOC)c(OCCOC)cc23)c1 [ERLOTINIB],–,–,IC50 (MCF7): 2700 nM; IC50 (A549): 11800 nM; IC50 (A-431): 1410 nM
CC(=O)N1c2ccc(-c3ccc(NC(=O)CCCCCCC(=O)NO)cc3)cc2[C@H](NC(=O)OC(C)C)C[C@@H]1C,–,–,IC50 (Histone deacetylase 1 [1]): 150 nM
COc1cc(OC)c2c(=O)[nH]c(-c3ccc(Oc4ccc(C(=O)NO)cn4)cc3)nc2c1,291 nM,15500 nM,–
COCCOc1cc2ncnc(Nc3ccc(/C=C/C(=O)NO)cc3)c2cc1OCCOC,–,–,IC50 (Histone deacetylase 1 [4]): 160 nM; IC50 (Histone deacetylase 3): 180 nM; IC50 [5]: 560 nM; inhibition [6]: 84%; inhibition [7]: 70%
O=C(CCCCCC(=O)Nc1ccc(O)c(C(=O)Nc2cccc(C(F)(F)F)c2)c1)NO,< 1000 nM,–,–
COc1cc(OC)c2c(=O)[nH]c(-c3cc(C)c(OCCCCCC(=O)NO)c(C)c3)nc2c1,291 nM,15500 nM,–
C#Cc1cccc(NC(=O)c2cc(NC(=O)CCCCCC(=O)NO)ccc2O)c1,< 1000 nM,–,–
COc1cc(OC)c2c(=O)[nH]c(-c3cc(C)c(O)c(C)c3)nc2c1,291000 nM,15500 nM,–
COC(c1c(F)cccc1Cl)c1c[nH]c2ncc(-c3c(C)noc3C)cc12 (stereo not drawn),291 nM,15500 nM,–

# Further lines, with some results ahead:
IC50 (Histone deacetylase),GI50 (THP-1),SMILES,other results
291 nM,15500 nM,COc1cc(OC)c2c(=O)[nH]c(-c3ccc(OCCCCC(=O)NO)cc3)nc2c1,–
< 1000 nM,–,COc1cc(C(=O)NCCCCC(=O)NO)ccc1Nc1nccc(-c2cn(C)c3ccccc23)n1,–
< 1000 nM,–,COc1cc(C(=O)NCCCCCC(=O)NO)ccc1Nc1nccc(-c2cn(C)c3ccccc23)n1,–
291 nM,15500 nM,Cc1cccc(Cc2cn(CCCCCCC(=O)NO)c3ccc(-c4c(C)noc4C)cc23)c1,–
< 1000 nM,–,COc1cc(C(=O)NCCC(=O)NO)ccc1Nc1nccc(-c2cn(C)c3ccccc23)n1,–
< 1000 nM,–,Cn1cc(-c2ccnc(Nc3ccc(C(=O)NCCCCC(=O)NO)cc3)n2)c2ccccc21,–
291 nM,15500 nM,Cc1noc(C)c1-c1ccc2c(c1)c(CCc1ccc(F)cc1)cn2CCCCCCC(=O)NO,–
291 nM,15500 nM,Cc1noc(C)c1-c1ccc2c(c1)c(CCc1ccccc1)cn2CCCCCCC(=O)NO,–
291 nM,15500 nM,Cc1cccc(Cc2cn(CCCCCC(=O)NO)c3ccc(-c4c(C)noc4C)cc23)c1,–
291 nM,15500 nM,Cc1noc(C)c1-c1ccc2c(c1)c(CCc1ccccc1)cn2CCCCCC(=O)NO,–
<= 1 uM,–,Cn1cc(-c2ccnc(Nc3ccc(C(=O)NCCCCCCC(=O)NO)cc3)n2)c2ccccc21,IC50 [3]: 5700 nM; IC50 (MDA-MB-231): 600 nM; IC50 (MDA-MB-468): 230 nM; IC50 (HeLa): 1850 nM; IC50 (HT-29): 790 nM; IC50 (KG-1): 240 nM
< 1000 nM,–,COc1cc(C(=O)NCCCCCCC(=O)NO)ccc1Nc1nccc(-c2cn(C)c3ccccc23)n1,–
291 nM,15500 nM,Cc1noc(C)c1-c1ccc2c(c1)c(CCc1ccc(F)cc1)cn2CCCCCC(=O)NO,–
291 nM,15500 nM,COc1cc(OC)c2c(=O)[nH]c(-c3ccc(OCCCCCCC(=O)NO)cc3)nc2c1,–
32 nM,15500 nM,COc1cc(OC)c2c(=O)[nH]c(-c3ccc(OCCCC(=O)NO)cc3)nc2c1,IC50 (OCI-AML2): 1520 nM; IC50 (OCI-AML-3): 1090 nM; IC50 (MV4-11): 1670 nM; IC50 [8]: 225 nM
291 nM,15500 nM,Cc1noc(C)c1-c1ccc2c(c1)c(Cc1ccccc1)cn2CCCCCC(=O)NO,–
< 1000 nM,–,Cn1cc(-c2ccnc(Nc3ccc(C(=O)Nc4ccccc4N)cc3)n2)c2ccccc21,–
< 1000 nM,–,O=C(CCCCCC(=O)Nc1ccc(O)c(C(=O)Nc2ccc(OCc3cccc(F)c3)c(Cl)c2)c1)NO,–
